Several values for one entry are separate records, joined by “and”; a condition that tells them apart may be missing. Identical values can stand only once. Toxic doses and inconclusive results are not listed. Rule as the data show it: active = T/C of 150% or more; inactive = T/C below 125%.
System: L1210 leukemia ip in BDF1 mice, survival T/C
Test: NCI In Vivo Anticancer Drug Screen. Data for tumor model L1210 Leukemia (intraperitoneal) in B6D2F1 (BDF1) mice
Settings: endpoint: mean survival time, higher = longer survival
How it was run: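 Mice bearing the transplanted tumor received compound or vehicle. Survival of the treated group was divided by that of the vehicle-treated control group to give the ratio.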

[1] = dose: 100.0 mg/kg/injection, schedule: Q04DX003 (ip), vehicle: saline with Tween-80
[2] = dose: 200.0 mg/kg/injection, schedule: Q04DX003 (ip), vehicle: saline with Tween-80
[3] = dose: 400.0 mg/kg/injection, schedule: Q04DX003 (ip), vehicle: saline with Tween-80
[4] = dose: 100.0 mg/kg/injection, schedule: Q01DX001 (ip), vehicle: carboxymethylcellulose (CMC)
[5] = dose: 100.0 mg/kg/injection, schedule: Q01DX009 (ip), vehicle: saline with Tween-80
[6] = dose: 200.0 mg/kg/injection, schedule: Q01DX009 (ip), vehicle: saline with Tween-80
[7] = dose: 200.0 mg/kg/injection, schedule: Q01DX001 (ip), vehicle: carboxymethylcellulose (CMC)
[8] = dose: 100.0 mg/kg/injection, schedule: Q01DX001 (ip), vehicle: saline
[9] = dose: 200.0 mg/kg/injection, schedule: Q01DX001 (ip), vehicle: saline
[10] = dose: 400.0 mg/kg/injection, schedule: Q01DX001 (ip), vehicle: saline

Measured: T/C

CC(C)N(C(=O)Nc1cccc(F)c1)c1ccccc1
inactive: dose: 100.0 mg/kg/injection, schedule: Q01DX009 (ip), vehicle: gum acacia 96 % of control | dose: 200.0 mg/kg/injection, schedule: Q01DX009 (ip), vehicle: gum acacia 96 % of control | dose: 400.0 mg/kg/injection, schedule: Q01DX009 (ip), vehicle: gum acacia 90 % of control

COc1ccc(OC(=O)OCc2ccc(OC)c(OC)c2)cc1
inactive: [1] 102 % of control | [2] 96 % of control | [3] 96 % of control

C1CSP(SCCSP2SCCS2)S1
inactive: dose: 25.0 mg/kg/injection, schedule: Q01DX009 (ip), vehicle: carboxymethylcellulose (CMC) 87 % of control and 88 % of control | dose: 25.0 mg/kg/injection, schedule: Q04DX002 (ip), vehicle: carboxymethylcellulose (CMC) 95 % of control and 90 % of control | dose: 50.0 mg/kg/injection, schedule: Q01DX009 (ip), vehicle: carboxymethylcellulose (CMC) 95 % of control | dose: 50.0 mg/kg/injection, schedule: Q04DX002 (ip), vehicle: carboxymethylcellulose (CMC) 97 % of control and 90 % of control | dose: 100.0 mg/kg/injection, schedule: Q01DX009 (ip), vehicle: carboxymethylcellulose (CMC) 95 % of control and 91 % of control | dose: 200.0 mg/kg/injection, schedule: Q04DX002 (ip), vehicle: carboxymethylcellulose (CMC) 94 % of control

Oc1ccc(Br)cc1-c1nc2cc(Cl)c(Cl)cc2nc1-c1cc(Br)ccc1O
inactive: dose: 100.0 mg/kg/injection, schedule: Q01DX009 (ip), vehicle: Klucel (hydroxypropylcellulose) (HPC) 94 % of control | dose: 100.0 mg/kg/injection, schedule: Q04DX003 (ip), vehicle: Klucel (hydroxypropylcellulose) (HPC) 107 % of control | dose: 200.0 mg/kg/injection, schedule: Q01DX009 (ip), vehicle: Klucel (hydroxypropylcellulose) (HPC) 94 % of control | dose: 200.0 mg/kg/injection, schedule: Q04DX003 (ip), vehicle: Klucel (hydroxypropylcellulose) (HPC) 101 % of control | dose: 400.0 mg/kg/injection, schedule: Q01DX009 (ip), vehicle: Klucel (hydroxypropylcellulose) (HPC) 96 % of control | dose: 400.0 mg/kg/injection, schedule: Q04DX003 (ip), vehicle: Klucel (hydroxypropylcellulose) (HPC) 95 % of control

Cc1ccc(NC(=O)N(C)N=O)cc1
inactive: dose: 17.7 mg/kg/injection, schedule: Q01DX009 (ip), vehicle: carboxymethylcellulose (CMC) 118 % of control | dose: 26.6 mg/kg/injection, schedule: Q01DX009 (ip), vehicle: carboxymethylcellulose (CMC) 117 % of control | dose: 40.0 mg/kg/injection, schedule: Q01DX009 (ip), vehicle: carboxymethylcellulose (CMC) 120 % of control | dose: 50.0 mg/kg/injection, schedule: Q01DX001 (ip), vehicle: Klucel (hydroxypropylcellulose) (HPC) 119 % of control | dose: 60.0 mg/kg/injection, schedule: Q01DX009 (ip), vehicle: carboxymethylcellulose (CMC) 88 % of control | dose: 89.0 mg/kg/injection, schedule: Q01DX001 (ip), vehicle: carboxymethylcellulose (CMC) 107 % of control | dose: 100.0 mg/kg/injection, schedule: Q01DX001 (ip), vehicle: Klucel (hydroxypropylcellulose) (HPC) 111 % of control | [4] 116 % of control | dose: 133.0 mg/kg/injection, schedule: Q01DX001 (ip), vehicle: carboxymethylcellulose (CMC) 122 % of control | dose: 200.0 mg/kg/injection, schedule: Q01DX001 (ip), vehicle: Klucel (hydroxypropylcellulose) (HPC) 114 % of control | dose: 400.0 mg/kg/injection, schedule: Q01DX001 (ip), vehicle: Klucel (hydroxypropylcellulose) (HPC) 114 % of control

O=C(Nc1cccc(NC(=O)Nc2cc(C(O)=Nc3ccc(C4=NCCN4)cc3)ccc2C(O)=Nc2ccc(C3=NCCN3)cc2)c1)Nc1cc(C(O)=Nc2ccc(C3=NCCN3)cc2)ccc1C(O)=Nc1ccc(C2=NCCN2)cc1
inactive: dose: 15.0 mg/kg/injection, schedule: Q01DX Z (ip), vehicle: saline 92 % of control | dose: 30.0 mg/kg/injection, schedule: Q01DX Z (ip), vehicle: saline 97 % of control | dose: 60.0 mg/kg/injection, schedule: Q01DX Z (ip), vehicle: saline 102 % of control | dose: 120.0 mg/kg/injection, schedule: Q01DX Z (ip), vehicle: saline 105 % of control

CCOP(=O)(C(O)C(Cl)(Cl)Cl)C(O)C(Cl)(Cl)Cl (centres undefined)
inactive: dose: 75.0 mg/kg/injection, schedule: Q04DX003 (ip), vehicle: saline with Tween-80 95 % of control | dose: 150.0 mg/kg/injection, schedule: Q04DX003 (ip), vehicle: saline with Tween-80 97 % of control

COc1cc(-c2nc3ccccc3c(=O)o2)cc(OC)c1OC
inactive: [5] 105 % of control | [1] 103 % of control | [6] 91 % of control | [2] 89 % of control | [3] 97 % of control

O=C(O)c1cccc(C(=O)c2ccccc2)c1O
inactive: [4] 97 % of control | [7] 100 % of control | dose: 400.0 mg/kg/injection, schedule: Q01DX001 (ip), vehicle: carboxymethylcellulose (CMC) 92 % of control

CC(C)CCCC(C)C1CCC2C3CC(O)C4=CCCCC4(C)C3CCC12C (centres undefined)
inactive: dose: 9.38 mg/kg/injection, schedule: Q01DX001 (ip), vehicle: other 97 % of control | dose: 18.75 mg/kg/injection, schedule: Q01DX001 (ip), vehicle: other 94 % of control | dose: 37.5 mg/kg/injection, schedule: Q01DX001 (ip), vehicle: other 94 % of control

O=C1CCC(c2ccccc2)(C2CCN(Cc3ccc(F)cc3)CC2)C(=O)N1 (centres undefined)
inactive: dose: 6.25 mg/kg/injection, schedule: Q01DX009 (ip), vehicle: saline 97 % of control | dose: 12.5 mg/kg/injection, schedule: Q01DX009 (ip), vehicle: saline 102 % of control | dose: 25.0 mg/kg/injection, schedule: Q01DX009 (ip), vehicle: saline 102 % of control

Cc1n(-c2ccccc2)c2ccccc2[n+]1[O-]
inactive: [8] 101 % of control | [9] 101 % of control | [10] 101 % of control

CCc1ccccc1NC(=O)N1CCN(C)CC1
inactive: dose: 100.0 mg/kg/injection, schedule: Q01DX009 (ip), vehicle: saline 104 % of control | dose: 200.0 mg/kg/injection, schedule: Q01DX009 (ip), vehicle: saline 92 % of control

O=C(O)CCOc1ccccc1Cl
inactive: [5] 91 % of control | dose: 100.0 mg/kg/injection, schedule: Q04DX002 (ip), vehicle: Klucel (hydroxypropylcellulose) (HPC) 98 % of control | [6] 95 % of control | dose: 200.0 mg/kg/injection, schedule: Q04DX002 (ip), vehicle: Klucel (hydroxypropylcellulose) (HPC) 95 % of control | dose: 400.0 mg/kg/injection, schedule: Q01DX009 (ip), vehicle: saline with Tween-80 93 % of control | dose: 400.0 mg/kg/injection, schedule: Q04DX002 (ip), vehicle: Klucel (hydroxypropylcellulose) (HPC) 106 % of control

CCCCCCCCCCC1Cc2ccccc2C1
inactive: dose: 50.0 mg/kg/injection, schedule: Q01DX001 (ip), vehicle: saline 95 % of control | [8] 98 % of control | [9] 104 % of control | [10] 93 % of control

CCOC(=O)NCc1ccc(Cl)c(C(=O)O)c1
inactive: [8] 105 % of control | dose: 100.0 mg/kg/injection, schedule: Q04DX003 (ip), vehicle: saline 88 % of control | [9] 94 % of control | dose: 200.0 mg/kg/injection, schedule: Q04DX003 (ip), vehicle: saline 101 % of control | [10] 93 % of control | dose: 400.0 mg/kg/injection, schedule: Q04DX003 (ip), vehicle: saline 93 % of control

CCN(CC)Cc1c(C)cc2oc(=O)c3c(c2c1O)CCCC3
inactive: [4] 93 % of control | [7] 93 % of control

O=C(Nc1ccc(C2=NCCN2)cc1)c1ccc(N=Nc2ccc(C(=O)Nc3ccc(C4=NCCN4)cc3)cc2)cc1
inactive: dose: 125.0 mg/kg/injection, schedule: Q01DX Z (ip), vehicle: water 106 % of control | dose: 250.0 mg/kg/injection, schedule: Q01DX Z (ip), vehicle: water 107 % of control

Source: PubChem BioAssay AID248 (DTP/NCI, 2004)
